Source: article PMC5607274, “An iterative compound screening contest method for identifying target protein inhibitors using the tyrosine-protein kinase Yes” (Scientific Reports, 2017)

Target: T1, human recombinant Yes [a.a. 2–543 (end)] (Homo sapiens, UniProt P07947)
T1 construct: human recombinant Yes [a.a; 2–543 (end)]; purchased BPS Bioscience 40488
Test: ADP-Glo kinase assay, inhibition rates of Yes phosphorylation activity (first and second screening)
Assay type: biochemical
Settings: first screening; mean of n = 4 wells; 10 μmol L−1 compound
Summary of the method: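 ADP-Glo luminescence measured inhibition of human recombinant Yes (a.a. 2–543) phosphorylation activity. In the first screen, each compound ran in 4 wells and inhibition rates were averaged. The second screen retested hits as compounds dissolved from fresh powder.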

T1 sequence (P07947 2-543): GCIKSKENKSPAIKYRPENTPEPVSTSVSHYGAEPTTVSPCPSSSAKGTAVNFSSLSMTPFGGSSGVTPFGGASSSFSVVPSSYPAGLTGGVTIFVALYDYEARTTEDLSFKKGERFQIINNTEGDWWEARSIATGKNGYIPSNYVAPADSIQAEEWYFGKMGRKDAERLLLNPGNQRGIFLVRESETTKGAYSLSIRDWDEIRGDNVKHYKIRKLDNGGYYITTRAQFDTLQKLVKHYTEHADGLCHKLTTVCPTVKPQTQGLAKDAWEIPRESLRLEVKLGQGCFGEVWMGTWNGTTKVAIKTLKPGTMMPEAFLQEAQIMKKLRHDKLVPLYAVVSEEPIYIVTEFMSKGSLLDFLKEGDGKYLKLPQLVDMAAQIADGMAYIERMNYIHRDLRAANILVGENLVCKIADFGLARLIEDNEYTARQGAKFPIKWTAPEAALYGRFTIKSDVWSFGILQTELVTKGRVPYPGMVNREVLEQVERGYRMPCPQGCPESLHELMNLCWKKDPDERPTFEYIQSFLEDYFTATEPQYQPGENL

Q: For `Cc1ccc(Cn2c(=O)c3ccccc3n3c(CCC(=O)NCCCN4CCOCC4)nnc23)cc1` [Compound Z1169067737], which “First screening IR (inhibition rate)” value is on record?
A: 2%

Q: With `Cc1ccc(Cn2c(=O)c3ccccc3n3c(CCC(=O)NCCCN4CCC(C)CC4)nnc23)cc1` [Compound Z1169067743] as the molecule, how does the “First screening IR (inhibition rate)” value read?
A: 18%

Q: Which “First screening IR (inhibition rate)” value does the source give for `Cc1ccc(Cn2c(=O)c3ccccc3n3c(CCC(=O)NCCN(Cc4ccco4)C(C)C)nnc23)cc1` [Compound Z1169067782] here?
A: 4%

Q: Which “First screening IR (inhibition rate)” value does the source give for `CC(C)N(CCNC(=O)CCc1nnc2n(Cc3ccc(F)cc3)c(=O)c3ccccc3n12)Cc1ccco1` [Compound Z1169067840] here?
A: -10%

Q: For `Cc1[nH]c(=O)c(C#N)c(C)c1CCc1nc(-c2cc(Br)cs2)no1` [Compound Z1170101191], which “First screening IR (inhibition rate)” value is on record?
A: 10%

Q: For `COCC(=O)N1CCCCCC1C1CCN(c2ncc(C(N)=O)cc2Cl)CC1` (centres unmarked) [Compound Z1170427223], which “First screening IR (inhibition rate)” value is on record?
A: 2%

Q: `O=C(C1CC1)N1CCCCCC1C1CCN(Cc2nnc(C3CC3)o2)CC1` (centres unmarked) [Compound Z1170432033] was tested. Which “First screening IR (inhibition rate)” value did it give?
A: 7%

Q: Which “First screening IR (inhibition rate)” value does the source give for `Cc1ncc(C(=O)NC(C)c2cccc(NC(=O)c3ccccc3)c2)[nH]1` (centres unmarked) [Compound Z1171689075] here?
A: -17%

Q: With `Cc1n[nH]c(C)c1C(C)C(=O)NCC(c1cccc(Cl)c1)N1CCCC1` (centres unmarked) [Compound Z1172045589] as the molecule, how does the “First screening IR (inhibition rate)” value read?
A: 9%

Q: `CC(=O)Nc1ccc(Nc2cc(C(C)(C)C)nc3c(-c4ccccc4Cl)c(C)nn23)cc1` [Compound Z1172235206] was tested. Which “First screening IR (inhibition rate)” value did it give?
A: 6%

Q: For `Cc1ccc(Cn2ncc3c(N4CCN(CCO)CC4)ncnc32)cc1` [Compound Z1172235406], which “First screening IR (inhibition rate)” value is on record?
A: -13%

Q: For `Clc1ccccc1Cn1ncc2c(N3CCOCC3)ncnc21` [Compound Z1172235408], which “First screening IR (inhibition rate)” value is on record?
A: -4%

Q: How did the “First screening IR (inhibition rate)” value turn out when `Clc1ccccc1Cn1ncc2c(NCCc3ccccc3)ncnc21` [Compound Z1172235413] was run?
A: 4%

Q: How did the “First screening IR (inhibition rate)” value turn out when `Clc1ccccc1Cn1ncc2c(N3CCCC3)ncnc21` [Compound Z1172235419] was run?
A: 45%

Q: How did the “First screening IR (inhibition rate)” value turn out when `CCSc1ccc(C(=O)NCCc2nc(-c3ccco3)n[nH]2)cn1` [Compound Z1174718157] was run?
A: 62%

Q: For `O=C(Nc1nccs1)C1CCCN(C(=O)c2[nH]ncc2Br)C1` (centres unmarked) [Compound Z1177677805], which “First screening IR (inhibition rate)” value is on record?
A: 6%

Q: How did the “First screening IR (inhibition rate)” value turn out when `CCc1nn2c(Nc3ccc(C(N)=O)cc3)cc(C)nc2c1-c1ccc(F)cc1` [Compound Z1179617819] was run?
A: 6%

Q: Which “First screening IR (inhibition rate)” value does the source give for `Cc1[nH]ncc1Nc1ccc2nccnc2n1` [Compound Z1182665660] here?
A: 6%

Q: Which “First screening IR (inhibition rate)” value does the source give for `Cc1ccc2nc3c(c(C(=O)O)c2c1)CCC/C3=C/c1cnn(C(C)C)c1` [Compound Z1184925017] here?
A: -1%

Q: How did the “First screening IR (inhibition rate)” value turn out when `N#Cc1cccc(NC(=O)NCCNC(=O)c2c(F)cccc2F)c1` [Compound Z1189154512] was run?
A: -6%

Q: With `O=C(NC(C1CC1)C1CC1)C1CCCN1c1ncnc2sccc12` (centres unmarked) [Compound Z1190394303] as the molecule, how does the “First screening IR (inhibition rate)” value read?
A: 6%

Q: For `FC(F)(F)c1ccnc(Nc2ccc(NCc3ccccn3)cc2)n1` [Compound Z1192169075], which “First screening IR (inhibition rate)” value is on record?
A: 39%

Q: `O=C(Nc1ccc(F)cc1)NC1CCN(c2ncnc3nc[nH]c23)C1` (centres unmarked) [Compound Z1193297141] was tested. Which “First screening IR (inhibition rate)” value did it give?
A: -11%

Q: Which “First screening IR (inhibition rate)” value does the source give for `CCC(C)CS(=O)(=O)N(C)CC` (centres unmarked) [Compound Z1193464552] here?
A: -7%

Q: `COc1ccc(-n2ccc(C(=O)N3CCCCC3c3cn[nH]c3)n2)cc1` (centres unmarked) [Compound Z1198921141] was tested. Which “First screening IR (inhibition rate)” value did it give?
A: 5%

Q: With `O=C1Cc2cc(Nc3nccc(C(F)(F)F)n3)ccc2N1` [Compound Z1199266078] as the molecule, how does the “First screening IR (inhibition rate)” value read?
A: 13%

Q: How did the “First screening IR (inhibition rate)” value turn out when `CN(C)C1(CNC(=O)CNC(=O)c2cc(F)cc(F)c2)CCOCC1` [Compound Z1199845522] was run?
A: 6%

Q: With `CCc1cc(=O)[nH]c(-c2cccc(NC(=O)C3(N4CCOCC4)CCCC3)c2)n1` [Compound Z1203120735] as the molecule, how does the “First screening IR (inhibition rate)” value read?
A: 3%

Q: How did the “First screening IR (inhibition rate)” value turn out when `COC1CN(C(=O)c2cn(-c3ccccc3)nc2-c2cccnc2)C1` [Compound Z1203241726] was run?
A: 7%
